Measurements: patent publication US8530648B2, “Diaza-spiro[5.5]undecanes” (Novartis AG, priority 2009, dated 2013)

Tests used:
hOx1R = hOx1R (Homo sapiens (Human), UniProt O43613); experiment: Calcium accumulation in cells (FLIPR), hOx1R; type: cell-based; conditions: for Ki: inhibition of orexin A induced calcium accumulation, Cheng and Prusoff correction; for inhibition at 10 µM: measured at a concentration of 10 μM of compound
Method: (§1) Calcium Accumulation in Cells (FLIPR):
(§2) Cells expressing human orexin 1 or human orexin 2 receptors, were seeded at 8,000 cells/well in 384 well black-walled clear bottom, poly-D-lysine coated plates. After 24 h, the medium was removed and cells were washed once with phosphate buffered saline and serum-deprived overnight in assay buffer (130 mM NaCl, 5.4 mM KCl, 1.8 mM CaCl2, 0.8 mM MgSO4, 0.9 mM NaH2PO4, 25 mM glucose, 20 mM HEPES, pH 7.4) containing bovine serum albumin (1% w/v).
(§3) On the day of the experiment, the cells seeded in black plates were treated with assay buffer containing the Ca^2+ sensitive fluorescent dye Fluo-4-AM (2 μM), and probenecid (0.1 mM). After 1 h plates were washed twice with, and resuspended in, assay buffer containing probenecid (0.1 mM) using a multi plate washer. […] Fluorescence measurements were then continued every 1 S for 120 S followed by every 4 S for 240 S.
(§4) The measurements were typically made in two sequences:
(§5) Compounds of formula I were tested usually in a concentration range from 10^−9 M to 10^−5 M.
(§6) In the second round, performed one hour later (to allow for equilibration), Orexin A was tested either in the absence (calibration curves, Orexin A agonist controls) or in the presence of compounds of formula I to determine antagonism.

hOx2R = hOx2R (Homo sapiens (Human), UniProt O43614); experiment: Calcium accumulation in cells (FLIPR), hOx2R; type: cell-based; conditions: for Ki: inhibition of orexin A induced calcium accumulation, Cheng and Prusoff correction; for inhibition at 10 µM: measured at a concentration of 10 μM of compound
Method: as §1, §2, §3, §4, §5, §6

Sequence of hOx2R (O43614 whole entry): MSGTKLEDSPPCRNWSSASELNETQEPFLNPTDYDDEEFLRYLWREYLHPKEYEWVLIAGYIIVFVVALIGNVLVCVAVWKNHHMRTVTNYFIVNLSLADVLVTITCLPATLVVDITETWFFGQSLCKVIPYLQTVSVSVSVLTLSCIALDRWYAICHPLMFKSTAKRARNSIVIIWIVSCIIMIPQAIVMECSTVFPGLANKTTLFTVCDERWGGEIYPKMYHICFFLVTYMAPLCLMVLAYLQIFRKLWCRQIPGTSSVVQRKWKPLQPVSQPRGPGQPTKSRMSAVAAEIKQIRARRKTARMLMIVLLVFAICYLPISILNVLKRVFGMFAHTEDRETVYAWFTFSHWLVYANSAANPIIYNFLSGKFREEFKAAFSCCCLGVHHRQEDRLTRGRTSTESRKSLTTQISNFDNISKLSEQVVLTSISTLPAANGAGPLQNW
Sequence of hOx1R (O43613 whole entry): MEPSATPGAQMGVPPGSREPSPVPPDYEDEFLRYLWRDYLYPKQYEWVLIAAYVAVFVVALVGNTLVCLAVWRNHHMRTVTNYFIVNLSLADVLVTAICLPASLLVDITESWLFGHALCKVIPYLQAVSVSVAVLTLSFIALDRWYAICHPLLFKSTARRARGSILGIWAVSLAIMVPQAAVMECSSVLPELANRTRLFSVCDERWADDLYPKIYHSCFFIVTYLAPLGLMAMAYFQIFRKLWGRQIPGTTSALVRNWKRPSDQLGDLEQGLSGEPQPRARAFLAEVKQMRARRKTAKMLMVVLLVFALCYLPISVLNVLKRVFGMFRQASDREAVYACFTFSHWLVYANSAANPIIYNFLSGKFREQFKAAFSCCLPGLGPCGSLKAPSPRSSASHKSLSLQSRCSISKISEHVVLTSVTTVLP

Row | Structure (SMILES) | Ki (hOx1R) | Ki (hOx2R) | inhibition at 10 µM (hOx2R) | inhibition at 10 µM (hOx1R)
1 | Cc1nc(-c2ccccc2)oc1CN1CCCC2(CCN(c3cnc4ccccc4n3)CC2)C1=O [Example 119, 2-((4-methyl-2-phenyloxazol-5-yl)methyl)-9-(quinoxalin-2-yl)-2,9-diazaspiro[5.5]undecan-1-one] | 1900 nM | 291 nM | – | –
2 | O=C1N(Cc2cc(=O)[nH]c3ccccc23)CCCC12CCN(c1cnc3ccccc3n1)CC2 [Example 96, 4-((1-oxo-9-(quinoxalin-2-yl)-2,9-diazaspiro[5.5]undecan-2-yl)methyl)quinolin-2(1H)-one] | 2400 nM | 631 nM | – | –
3 | O=C1N(Cc2c[nH]c3ccccc23)CCCC12CCN(c1cc(-n3ccnc3)ncn1)CC2 [Example 158, 9-(6-(1H-imidazo-1-yl)pyrimidin-4-yl)-2-((1H-indol-3-yl)methyl)-2,9-diazaspiro[5.5]undecan-1-one] | – | 545 nM | – | 21%
4 | O=C1N(Cc2ccccc2-n2cccn2)CCCC12CCN(c1cnc3ccccc3n1)CC2 [Example 85, 2-(2-(1H-pyrazol-1-yl)benzyl)-9-(quinoxalin-2-yl)-2,9-diazaspiro[5.5]undecan-1-one] | – | 822 nM | – | 15%
5 | O=C1N(Cc2c[nH]c3ccccc23)CCCC12CCN(c1nc3ccccc3s1)CC2 [Example 52, 2-((1H-indol-3-yl)methyl)-9-(benzo[d]thiazol-2-yl)-2,9-diazaspiro[5.5]undecan-1-one] | 1360 nM | 178 nM | – | –
6 | O=C1CCCC2(CCN(c3nnc(-c4ccccc4)o3)CC2)N1Cc1cccc2[nH]ccc12 [Example 137, 1-((1H-indol-4-yl)methyl)-9-(5-phenyl-1,3,4-oxadiazol-2-yl)-1,9-diazaspiro[5.5]undecan-2-one] | 509 nM | 656 nM | – | –
7 | O=C1N(Cc2ccc(-c3ncccn3)cc2)CCCC12CCN(c1cnc3ccccc3n1)CC2 [Example 101, 2-(4-(pyrimidin-2-yl)benzyl)-9-(quinoxalin-2-yl)-2,9-diazaspiro[5.5]undecan-1-one] | 2790 nM | 1380 nM | – | –
8 | O=C1N(Cc2ccc(-n3cncn3)cc2)CCCC12CCN(c1cnc3ccccc3n1)CC2 [Example 81, 2-(4-(1H-1,2,4-triazol-1-yl)benzyl)-9-(quinoxalin-2-yl)-2,9-diazaspiro[5.5]undecan-1-one] | – | 1580 nM | – | 13%
9 | CN1CCOc2c(CN3CCCC4(CCN(c5cnc6ccccc6n5)CC4)C3=O)cccc21 [Example 144, 2-((4-methyl-3,4-dihydro-2H-benzo[b][1,4]oxazin-8-yl)methyl)-9-(quinoxalin-2-yl)-2,9-diazaspiro[5.5]undecan-1-one] | 3250 nM | 596 nM | – | –
10 | CC(c1c[nH]c2ccccc12)N1CCCC2(CCN(c3cnc4ccccc4n3)CC2)C1=O (stereo not shown) [Example 74, 2-(1-(1H-indol-3-yl)ethyl)-9-(quinoxalin-2-yl)-2,9-diazaspiro[5.5]undecan-1-one] | 675 nM | 185 nM | – | –
11 | O=C1N(Cc2c[nH]c3ccccc23)CCCC12CCN(c1nc3cc(Cl)ccc3o1)CC2 [Example 131, 2-((1H-indol-3-yl)methyl)-9-(5-chlorobenzo[d]oxazol-2-yl)-2,9-diazaspiro[5.5]undecan-1-one] | – | 524 nM | – | 48%
12 | O=C1N(Cc2c[nH]c3ccccc23)CCCC12CCN(c1cnc3nccnc3c1)CC2 [Example 146, 2-((1H-indol-3-yl)methyl)-9-(pyrido[3,2-b]pyrazin-7-yl)-2,9-diazaspiro[5.5]undecan-1-one] | – | 621 nM | – | 29%
13 | O=C1N(Cc2nccn2Cc2ccccc2)CCCC12CCN(c1cnc3ccccc3n1)CC2 [Example 86, 2-((1-benzyl-1H-imidazol-2-yl)methyl)-9-(quinoxalin-2-yl)-2,9-diazaspiro[5.5]undecan-1-one] | – | 372 nM | – | 47%

Continued, values first:

Row | Ki (hOx1R) | Ki (hOx2R) | inhibition at 10 µM (hOx2R) | inhibition at 10 µM (hOx1R) | Structure (SMILES)
14 | 1150 nM | 244 nM | – | – | Cc1[nH]c2ccccc2c1CN1CCCC2(CCN(c3cnc4ccccc4n3)CC2)C1=O [Example 133, 2-((2-methyl-1H-indol-3-yl)methyl)-9-(quinoxalin-2-yl)-2,9-diazaspiro[5.5]undecan-1-one]
15 | 2870 nM | – | 38% | – | COc1ccnc(CN2CCCC3(CCN(c4cnc5ccccc5n4)CC3)C2=O)c1OC [Example 91, 2-((3,4-dimethoxypyridin-2-yl)methyl)-9-(quinoxalin-2-yl)-2,9-diazaspiro[5.5]undecan-1-one]
16 | – | – | 35% | 22% | O=C1N(Cc2nnc3ccccn23)CCCC12CCN(c1cnc3ccccc3n1)CC2 [Example 75, 2-([1,2,4]triazolo[4,3-a]pyridin-3-ylmethyl)-9-(quinoxalin-2-yl)-2,9-diazaspiro[5.5]undecan-1-one]
17 | – | – | 25% | 11% | Cc1cc(CN2CCCC3(CCN(c4cnc5ccccc5n4)CC3)C2=O)no1 [Example 88, 2-((5-methylisoxazol-3-yl)methyl)-9-(quinoxalin-2-yl)-2,9-diazaspiro[5.5]undecan-1-one]
18 | – | – | 22% | 8% | Cc1noc(C)c1CN1CCCC2(CCN(c3cnc4ccccc4n3)CC2)C1=O [Example 37, 2-((3,5-dimethylisoxazol-4-yl)methyl)-9-(quinoxalin-2-yl)-2,9-diazaspiro[5.5]undecan-1-one]
19 | 3690 nM | 1180 nM | – | – | COc1ccc(-c2nnc(CN3CCCC4(CCN(c5cnc6ccccc6n5)CC4)C3=O)o2)cc1 [Example 31, 2-((5-(4-methoxyphenyl)-1,3,4-oxadiazol-2-yl)methyl)-9-(quinoxalin-2-yl)-2,9-diazaspiro[5.5]undecan-1-one]
20 | – | – | 24% | 11% | O=C1N(Cc2ccc3[nH]ccc3c2)CCCC12CCN(c1cnc3ccccc3n1)CC2 [Example 123, 2-((1H-indol-5-yl)methyl)-9-(quinoxalin-2-yl)-2,9-diazaspiro[5.5]undecan-1-one]
21 | 2150 nM | 232 nM | – | – | O=C1N(Cc2cnn3ccccc23)CCCC12CCN(c1cnc3ccccc3n1)CC2 [Example 79, 2-(pyrazolo[1,5-a]pyridin-3-ylmethyl)-9-(quinoxalin-2-yl)-2,9-diazaspiro[5.5]undecan-1-one]
22 | – | – | 24% | 37% | O=C1N(Cc2ccc3nonc3c2)CCCC12CCN(c1cnc3ccccc3n1)CC2 [Example 53, 2-(benzo[c][1,2,5]oxadiazol-5-ylmethyl)-9-(quinoxalin-2-yl)-2,9-diazaspiro[5.5]undecan-1-one]
23 | – | – | 13% | 29% | N#Cc1ccc(CN2CCCC3(CCN(c4cnc5ccccc5n4)CC3)C2=O)cn1 [Example 100, 5-((1-oxo-9-(quinoxalin-2-yl)-2,9-diazaspiro[5.5]undecan-2-yl)methyl)picolinonitrile]
24 | – | – | 43% | 19% | COc1cc(CN2CCCC3(CCN(c4cnc5ccccc5n4)CC3)C2=O)ccn1 [Example 45, 2-((2-methoxypyridin-4-yl)methyl)-9-(quinoxalin-2-yl)-2,9-diazaspiro[5.5]undecan-1-one]
25 | 2340 nM | 299 nM | – | – | O=C1N(Cc2cc(-n3cccn3)ccn2)CCCC12CCN(c1cnc3ccccc3n1)CC2 [Example 127, 2-((4-(1H-pyrazol-1-yl)pyridin-2-yl)methyl)-9-(quinoxalin-2-yl)-2,9-diazaspiro[5.5]undecan-1-one]
26 | – | – | 33% | 14% | Cc1cccc(CN2CCCC3(CCN(c4cnc5ccccc5n4)CC3)C2=O)n1 [Example 97, 2-((6-methylpyridin-2-yl)methyl)-9-(quinoxalin-2-yl)-2,9-diazaspiro[5.5]undecan-1-one]
27 | – | – | 32% | 15% | O=C1N(Cc2ccc(Cl)nc2)CCCC12CCN(c1cnc3ccccc3n1)CC2 [Example 78, 2-((6-chloropyridin-3-yl)methyl)-9-(quinoxalin-2-yl)-2,9-diazaspiro[5.5]undecan-1-one]
28 | 2360 nM | 282 nM | – | – | Cc1cc(CN2CCCC3(CCN(c4cnc5ccccc5n4)CC3)C2=O)c2ccccc2n1 [Example 33, 2-((2-methylquinolin-4-yl)methyl)-9-(quinoxalin-2-yl)-2,9-diazaspiro[5.5]undecan-1-one]
29 | – | – | 27% | 11% | O=C1N(Cc2ccncc2)CCCC12CCN(c1cnc3ccccc3n1)CC2 [Example 67, 2-(pyridin-4-ylmethyl)-9-(quinoxalin-2-yl)-2,9-diazaspiro[5.5]undecan-1-one]
30 | 1190 nM | 113 nM | – | – | Cc1cc(C)cc(CN2CCCC3(CCN(c4cnc5ccccc5n4)CC3)C2=O)c1 [Example 16, 2-(3,5-dimethylbenzyl)-9-(quinoxalin-2-yl)-2,9-diazaspiro[5.5]undecan-1-one]
31 | – | – | 32% | 30% | Cn1nccc1-c1ccccc1CN1CCCC2(CCN(c3cnc4ccccc4n3)CC2)C1=O [Example 148, 2-(2-(1-methyl-1H-pyrazol-5-yl)benzyl)-9-(quinoxalin-2-yl)-2,9-diazaspiro[5.5]undecan-1-one]
32 | – | 830 nM | – | 29% | Cc1cc(CN2CCCC3(CCN(c4cnc5ccccc5n4)CC3)C2=O)ccn1 [Example 68, 2-((2-methylpyridin-4-yl)methyl)-9-(quinoxalin-2-yl)-2,9-diazaspiro[5.5]undecan-1-one]
